The supplement of paper PMC10307832

Legend:
Assay in all cases: relative viability (nuclei count vs DMSO), 5 days (fraction); higher = more cells survive
BAY61-3606 + Pemetrexed = compound: COC1=C(C=C(C=C1)C2=CC3=NC=CN3C(=N2)NC4=C(C=CC=N4)C(=O)N)OC [BAY61-3606] + Nc1nc2[nH]cc(CCc3ccc(C(=O)N[C@@H](CCC(=O)O)C(=O)O)cc3)c2c(=O)[nH]1 [Pemetrexed] (partner 0.2 µM)
Procedure, shortened: (§1)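 Relative viability divides the nuclei count in treated wells by that in vehicle wells. Lung cancer cell lines were seeded in 1536-well plates, dosed by pin tool the next day, and fixed and stained after 5 days in one step with final 0.05% Triton X-100, 1% formaldehyde and 1 ug/ml Hoechst. Dosing was a single drug or a fixed anchor-drug dose plus five library-drug doses (not always all listed) in √10 steps, and values are medians of duplicate plates imaged at 4×.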

Doxorubicin + OSI-027 = compound: COc1cccc2c1C(=O)c1c(O)c3c(c(O)c1C2=O)C[C@@](O)(C(=O)CO)C[C@@H]3O[C@H]1C[C@H](N)[C@H](O)[C@H](C)O1 [Doxorubicin] + COc1cccc2cc(-c3nc([C@H]4CC[C@H](C(=O)O)CC4)n4ncnc(N)c34)[nH]c12 [OSI-027] (partner 0.5 µM)
Procedure, shortened: as §1

Doxorubicin + Olaparib = compound: COc1cccc2c1C(=O)c1c(O)c3c(c(O)c1C2=O)C[C@@](O)(C(=O)CO)C[C@@H]3O[C@H]1C[C@H](N)[C@H](O)[C@H](C)O1 [Doxorubicin] + O=C(c1cc(Cc2n[nH]c(=O)c3ccccc23)ccc1F)N1CCN(C(=O)C2CC2)CC1 [Olaparib] (partner 8 µM)
Procedure, shortened: as §1

Doxorubicin + Decitabine = compound: COc1cccc2c1C(=O)c1c(O)c3c(c(O)c1C2=O)C[C@@](O)(C(=O)CO)C[C@@H]3O[C@H]1C[C@H](N)[C@H](O)[C@H](C)O1 [Doxorubicin] + Nc1ncn([C@H]2C[C@H](O)[C@@H](CO)O2)c(=O)n1 [Decitabine] (partner 2 µM)
Procedure, shortened: as §1

Cell Line	relative viability (BAY61-3606 + Pemetrexed; first compound 0.02 µM)	relative viability (BAY61-3606 + Pemetrexed; first compound 0.06325 µM)	relative viability (BAY61-3606 + Pemetrexed; first compound 0.2 µM)	relative viability (BAY61-3606 + Pemetrexed; first compound 0.6325 µM)	relative viability (BAY61-3606 + Pemetrexed; first compound 2 µM)	relative viability (Doxorubicin + OSI-027; first compound 0.001 µM)	relative viability (Doxorubicin + OSI-027; first compound 0.003162 µM)	relative viability (Doxorubicin + OSI-027; first compound 0.01 µM)	relative viability (Doxorubicin + OSI-027; first compound 0.03162 µM)	relative viability (Doxorubicin + OSI-027; first compound 0.1 µM)	relative viability (Doxorubicin + Olaparib; first compound 0.001 µM)	relative viability (Doxorubicin + Olaparib; first compound 0.003162 µM)	relative viability (Doxorubicin + Olaparib; first compound 0.01 µM)	relative viability (Doxorubicin + Olaparib; first compound 0.03162 µM)	relative viability (Doxorubicin + Olaparib; first compound 0.1 µM)	relative viability (Doxorubicin + Decitabine; first compound 0.001 µM)	relative viability (Doxorubicin + Decitabine; first compound 0.003162 µM)	relative viability (Doxorubicin + Decitabine; first compound 0.01 µM)	relative viability (Doxorubicin + Decitabine; first compound 0.03162 µM)	relative viability (Doxorubicin + Decitabine; first compound 0.1 µM)
HCC-78	0.864	0.951	0.868	0.889	0.825	0.433	0.384	0.329	0.354	0.318	0.866	0.994	1.04	0.799	0.701	0.749	0.697	0.717	0.668	0.533
HOP-62		0.354	0.323	0.332	0.249	0.832	0.759	0.798	0.719	0.767	0.396	0.56	0.365	0.42	0.296	0.217	0.249	0.187	0.228	0.206
NCI-H1623						0.388	0.41	0.462	0.434	0.423										
NCI-H3122	0.208	0.219	0.211	0.187	0.201	0.489	0.89	0.819	0.382	0.314	0.535	0.616	0.58	0.62	0.634	0.391	0.514	0.389	0.384	0.437
NCI-H1666	0.84	0.911	0.81	0.973	0.909	0.778	0.736	0.547	0.45	0.486		0.701	0.733	0.602	0.607	0.671	0.759	0.662	0.692	0.697
HARA	0.25	0.253	0.236	0.221	0.238	0.454	0.543	0.569	0.509	0.473	1.05	0.8	0.722	0.718	0.759	0.796	0.425	0.519	0.507	0.407
NCI-H1651	0.608	0.544	0.492	0.537	0.531	0.682	0.679	0.554	0.298	0.22	0.216	0.182	0.205	0.184	0.198	0.534	0.63	0.638	0.506	0.571
NCI-H1395	1.04	0.659	0.72	0.899	0.73	0.633	0.714	0.685	0.603	0.559	0.445	0.506	0.466	0.417	0.4	0.724	0.666	0.634	0.614	0.651
